# Paper PMC3360951 (Chemistry & biology, 2008)
# Experiments:
# [1] = tested on: CWR22R-H PSA-producing human prostate cancer xenograft; assay: Serum free and total PSA per gram of tumor in CWR22R-H xenograft mice; format: in vivo; conditions: over the 10 day period between PSA measurements; 33 mg/kg/dose x 6
# [2] = tested on: CWR22R-H PSA-producing human prostate cancer xenograft; assay: Growth of subcutaneous CWR22R-H xenografts; conditions: 33 mg/kg/dose iv x 6 doses (46: equimolar doses); significant only at day 6
# [3] = Initial toxicologic studies, intravenous doses in mice; format: in vivo, mouse
# PSA [4] = target: T1, PSA (Homo sapiens, UniProt P07288); assay: PSA activity assay, inhibition kinetics by progress curves; format: biochemical
# T1 sequence (P07288 25-261): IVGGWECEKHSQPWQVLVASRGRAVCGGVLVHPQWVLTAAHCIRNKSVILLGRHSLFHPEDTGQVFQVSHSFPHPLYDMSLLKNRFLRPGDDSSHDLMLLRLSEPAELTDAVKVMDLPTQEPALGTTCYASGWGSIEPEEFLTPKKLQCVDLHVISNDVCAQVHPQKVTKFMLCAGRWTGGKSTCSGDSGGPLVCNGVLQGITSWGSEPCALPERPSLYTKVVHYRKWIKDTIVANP
# [5] = tested on: PSA-negative TSU human bladder cancer cells; assay: Clonal survival assay, TSU; format: cell-based; conditions: under these same conditions (100 nM, 1 μM)
# chymotrypsin = assay: Protease specificity: chymotrypsin + suc-AAF-AMC; format: biochemical
# elastase = assay: Protease specificity: elastase + suc-AAPV-AMC; format: biochemical
# cathepsin B = cathepsin B (Homo sapiens, UniProt P07858); assay: Protease specificity: cathepsin B + Z-RR-AMC; format: biochemical; conditions: in words; over a range of concentrations
# trypsin = assay: Protease specificity: trypsin + Bz-R-AMC; format: biochemical
# PSA [6] = target: T1, PSA; conditions: 500 nM inhibitor, 37°C, western blot
# [7] = target: dipeptidyl peptidase 4 (DPP-4) (Homo sapiens, UniProt P27487); assay: Protease specificity: DPP-4 + AP-AFC; format: biochemical
# dipeptidyl peptidase 4 (DPP-4), sequence (P27487 whole entry, species assumed): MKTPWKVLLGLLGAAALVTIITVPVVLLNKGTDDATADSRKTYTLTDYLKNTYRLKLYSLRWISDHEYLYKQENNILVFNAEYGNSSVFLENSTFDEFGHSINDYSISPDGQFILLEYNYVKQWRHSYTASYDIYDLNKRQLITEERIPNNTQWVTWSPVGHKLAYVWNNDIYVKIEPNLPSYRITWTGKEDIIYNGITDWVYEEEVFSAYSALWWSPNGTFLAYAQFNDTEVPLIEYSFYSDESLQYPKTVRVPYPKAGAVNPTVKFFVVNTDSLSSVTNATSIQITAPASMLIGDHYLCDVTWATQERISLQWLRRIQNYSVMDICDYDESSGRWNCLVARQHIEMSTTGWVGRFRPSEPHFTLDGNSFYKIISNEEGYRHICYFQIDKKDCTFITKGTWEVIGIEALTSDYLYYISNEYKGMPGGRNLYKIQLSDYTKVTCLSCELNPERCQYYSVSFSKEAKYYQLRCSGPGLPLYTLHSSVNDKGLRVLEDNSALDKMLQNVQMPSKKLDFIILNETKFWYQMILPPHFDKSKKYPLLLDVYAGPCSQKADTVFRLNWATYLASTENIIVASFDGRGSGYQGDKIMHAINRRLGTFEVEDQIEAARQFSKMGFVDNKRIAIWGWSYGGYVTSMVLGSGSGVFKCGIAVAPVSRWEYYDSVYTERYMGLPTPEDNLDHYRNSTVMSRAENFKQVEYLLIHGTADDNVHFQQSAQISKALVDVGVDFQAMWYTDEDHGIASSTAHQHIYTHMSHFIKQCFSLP
# [8] = tested on: PSA-positive LNCaP human prostate cancer cells; assay: Clonal survival assay, LNCaP; format: cell-based; conditions: compared to vehicle-treated control
# cathepsin D = cathepsin D (Bos taurus, UniProt P80209); assay: Protease specificity: Cathepsin D Assay Kit; format: biochemical; conditions: in words; over a range of concentrations
# cathepsin D, sequence (P80209 45-390): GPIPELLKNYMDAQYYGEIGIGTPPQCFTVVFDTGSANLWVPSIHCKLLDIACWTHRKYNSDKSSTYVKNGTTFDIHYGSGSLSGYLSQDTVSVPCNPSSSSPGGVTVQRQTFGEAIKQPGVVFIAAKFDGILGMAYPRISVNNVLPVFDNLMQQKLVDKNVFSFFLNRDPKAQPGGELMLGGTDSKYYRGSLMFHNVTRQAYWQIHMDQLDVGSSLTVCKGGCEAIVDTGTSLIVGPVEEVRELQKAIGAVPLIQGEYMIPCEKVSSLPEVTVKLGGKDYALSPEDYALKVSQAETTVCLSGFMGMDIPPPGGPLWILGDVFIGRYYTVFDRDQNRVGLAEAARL
# PSA [9] = target: T1, PSA; conditions: 1.5 μM inhibitor, 2 nM PSA, 37°C, 1 hr
# [10] = tested on: LNCaP, LAPC-4, CWR22R, C4-2B, DU145, PC3 human prostate cancer cell lines; assay: MTT growth assay, panel of prostate cancer cell lines; format: cell-based; conditions: 100 nM; cells attached 24 hr before exposure
# [11] = compared to full-length Z-SSKLL-H
substance,measurement,setting,value
Mu-SSKL(boro)L,increase of free PSA levels/gram of tumor,[1],13%
same,increase of total PSA levels/gram of tumor,[1],1.85 fold
same,effect on tumor volume / tumor growth compared to vehicle control,[2],slight decrease in tumor volume
same,effect on body weight,"[3]; dose of 100 mg/kg, mice",transient weight loss
same,lethality (fraction of the mice),[3]; dose of 300 mg/kg,one-third
same,effects on mouse body weight,[3]; repeat intravenous doses of 33 mg/kg,no significant effects
same,tolerability,"[3]; repeat intravenous doses of 33 mg/kg, mice",well tolerated
Z-KL(boro)L [compound 36],fold increase in Ki for PSA,PSA [4]; compared to Z-SSKL(boro)L,90 fold
Z-KL(boro)Nle [compound 37],fold increase in Ki for PSA,PSA [4]; compared to Z-SSKL(boro)Nle,59 fold
Z-SKLL-H [compound 8],fold higher Ki for PSA,PSA [4]; [11],~ 6.5 fold
Z-SSKIL-H [compound 4],fold higher Ki for PSA,PSA [4]; [11],~ 6 fold
Z-SSKL(boro)L [compound 39],inhibition of clonal survival,[5],~ 25%
same,fold higher Ki for chymotrypsin than for PSA,chymotrypsin,60 fold
same,Ki,chymotrypsin; chymotrypsin,3.9 µM
same,Selectivity,chymotrypsin; chymotrypsin relative to PSA inhibition,60
same,selectivity for PSA over elastase,elastase,22 times
same,Ki,elastase; elastase,1390 nM
same,Selectivity,elastase; elastase relative to PSA inhibition,22
same,inhibition of elastase,elastase; in words,Modest inhibition
same,inhibition of cathepsin B,cathepsin B,no inhibition
same,inhibition of trypsin,trypsin; in words,did not inhibit
same,Ki,trypsin; trypsin,> 100 µM
same,Selectivity,trypsin; trypsin relative to PSA inhibition,>1500
same,protection of IGFBP3 from degradation by PSA,PSA [6],protected IGFBP3 from degradation by PSA
same,Selectivity,[7]; DPPIV relative to PSA inhibition,>1500
same,inhibition of DPP-4,[7]; in words,did not inhibit
same,inhibition of clonal survival,[8]; 100 nM,~ 75%
same,inhibition of clonal survival,[8]; 1 μM,~ 85%
same,inhibition of cathepsin D,cathepsin D,no inhibition
same,PSA cleavage of the PTHrP peptide 1-34,PSA [9],completely inhibited
same,fold higher Ki for PSA,PSA [4]; compared to Z-SSL(boro)L,~ 8 fold
same,Selectivity,"PSA [4]; relative to PSA inhibition, PSA itself",1
same,effect on growth of cell lines,[10],marginal effect
Z-SSKL(boro)Nle [compound 38],fold increase in Ki for PSA,PSA [4]; compared to Z-SSKL(boro)L,~ 5 fold
Z-SSKLL-CH2OH [compound 26],inhibition of PSA,PSA [4]; in words,did not inhibit PSA
Z-SSKYL-H [compound 2],fold higher Ki for PSA,PSA [4]; [11],~ 2 fold
